SMILES | melting point
CC(C)Oc1c(F)cc(N)cc1F | 60 to 62 °C
O=C(CCCl)N1CCOCC1 | 46 to 48 °C
Nc1cccc(N2CCCS2(=O)=O)c1 | 85 to 87 °C
O=Cc1cn(-c2ccc(F)c(Cl)c2)nn1 | 148 to 150 °C
[N-]=[N+]=Nc1cccc2cccnc12 | 42 to 44 °C
CCOC(=O)c1cnn2cc(Br)cnc12 | 141 to 143 °C
Cc1cc(N)n(-c2cc(C(F)(F)F)ccc2Cl)n1 | 159 to 161 °C
O=C(CCl)NNC(=O)C1CC1 | 185 to 187 °C
CCS(=O)(=O)N1CCCC(C(=O)O)C1 (stereo not given) | 59 to 61 °C
CC=Cc1ccc(OCC(=O)O)c(OC)c1 | 117 to 119 °C
CCOC(=O)N1CCC(NC(N)=S)CC1 | 160 to 162 °C
NC(C(=O)O)(c1cccc(C(F)(F)F)c1)C(F)(F)F (stereo not given) | 119 to 121 °C
OCCCNc1ccncc1 | 98 to 100 °C
CN1CC(=O)N(c2cccc([N+](=O)[O-])c2)C1=O | 144 to 146 °C
O=C(NCCCl)C1CCCC1 | 72 to 74 °C
CC(C)(C)OC(=O)N1CCc2c(N)cccc2C1 | 122 to 124 °C
Nc1cc(Cl)c(Cl)nc1N | 149 to 151 °C
Clc1nc(C2CC2)nc2scc(-c3ccccc3)c12 | 77 to 79 °C
O=S(=O)(c1cccnc1)N1CCNCC1 | 88 to 90 °C
CC(C)NC(=O)NC(=O)CCl | 86 to 88 °C
Cn1c(=O)oc(=O)c2cc([N+](=O)[O-])ccc21 | 180 to 182 °C
Nc1nc2c(C(F)(F)F)cccc2s1 | 48 to 50 °C
CC(=N\O)/C(C)=N/O | 240 to 241 °C

SMILES | melting point
NC(=O)NCc1ccncc1 | 198 to 200 °C
Cc1cc(S(N)(=O)=O)c(C)o1 | 86 to 88 °C
NC(=O)c1ccc(Cl)nn1 | 239 to 241 °C
COc1cc(C(=O)CBr)ccc1OC(F)F | 45 to 46 °C
O=C(c1cc(Cl)ccc1[N+](=O)[O-])N1CCCC1 | 157 to 159 °C
Cc1ccc(C(=O)NC=C(Cl)Cl)cc1 | 96 to 98 °C
COc1ccc(Br)c(S(=O)(=O)Cl)c1 | 63 to 65 °C
Cc1cc(Cl)c2c(c1)C(=O)C(=O)N2 | 173 to 175 °C
Nc1nc(Cc2ccccc2Br)cs1 | 115 to 117 °C
COC(=O)NS(=O)(=O)Cl | 69 to 71 °C
Cc1cc2c(cc1C)OC(C(=O)O)C2 (stereo not given) | 149 to 151 °C
Cn1c(=O)c2[nH]c(S)nc2n(C)c1=O | 328 to 330 °C
O=c1[nH]c(CCl)nc2cc(C(F)(F)F)ccc12 | 209 to 211 °C
O=c1[nH]ccc2occc12 | 193 to 195 °C
CC(C)CC(N)C(O)c1cccs1 (stereo not given) | 63 to 65 °C
COc1ccc(CNc2c([N+](=O)[O-])ncn2C)cc1OC | 196 to 198 °C
CCC(CC)n1ncc(C(=O)O)c1C | 154 to 156 °C
O=C1CCC(=O)N1CCBr | 53 to 55 °C
O=C(O)c1ccnc(OC2CCCCC2)c1 | 123 to 125 °C
O=C(O)c1c[nH]cc1-c1cc(Cl)c2c(c1)OCCO2 | 209 to 211 °C
CN(C)Cc1c(O)ccc2c1CCCC2 | 77 to 79 °C
C/C=C/c1cc(C(=O)O)cc(OC)c1OC | 142 to 144 °C
COC(=O)c1ccc(N)s1 | 115 to 117 °C

SMILES | melting point
Cc1csc2nc(CO)cc(=O)n12 | 154 to 156 °C
O=C(O)C1CCN(C(=O)N2CCOCC2)CC1 | 131 to 133 °C
COCCOC(=O)c1c(C)[nH]c(C(=O)O)c1C | 177 to 179 °C
CCc1nnc(NC(=O)CCl)s1 | 101 to 103 °C
NC(Cc1cccnc1)=NO | 149 to 151 °C
CCc1cc(C#N)c(N)s1 | 61 to 63 °C
CC1(C)CN(C(=O)OC(C)(C)C)c2ccccc2N1 | 92 to 94 °C
CC(C)(C)OC(=O)NCCC(=O)NC(N)=O | 162 to 164 °C
NC(=O)c1c[nH]c(C2CC2)n1 | 216 to 218 °C
Cn1c(=O)ccn(CC(=O)O)c1=O | 240 to 242 °C
Sc1nncn1CCc1ccccn1 | 204 to 206 °C
Cc1csc(=O)[nH]1 | 98 to 100 °C
O=Cc1c[nH]c2cc(Cl)ccc12 | 209 to 211 °C
CN1CCC(C(=O)O)CC1=O (stereo not given) | 163 to 165 °C
CNC(=S)NC1CC1 | 108 to 110 °C
COc1ccc(-c2nc(N)sc2C)cc1 | 120 to 122 °C
Cc1cc(C)cc(C2(C(=O)O)CC2)c1 | 164 to 166 °C
OCc1ncc(-c2ccc(F)cc2)o1 | 81 to 83 °C
Cn1c(=O)n(C)c2cc(Br)ccc21 | 163 to 165 °C
O=S(=O)(Cl)c1c[nH]c2ncccc12 | 187 to 189 °C
O=C(NC1CC1)c1cc(Br)c[nH]1 | 144 to 146 °C
CCN(CC)S(=O)(=O)c1ccc(-c2ccc(C=O)o2)cc1 | 119 to 121 °C
Cc1cc(N)nc(Cl)n1 | 220 to 222 °C

SMILES | melting point
Cc1csc(=O)n1CCBr | 47 to 51 °C
O=C1COc2c(F)cc(Br)cc21 | 102 to 104 °C
O=C1CCNc2ncccc2N1 | 263 to 265 °C
O=C(CCl)NC1CCOCC1 | 82 to 84 °C
N#Cc1cccc(CCl)c1 | 67 to 70 °C
CC(C)(C)n1[nH]c(=O)cc1N | 223 to 225 °C
COC(=O)c1ccc(F)c(N)c1 | 67 to 69 °C
Nc1nonc1C(=O)N1CCOCC1 | 136 to 138 °C
NC(=O)C(Cl)c1ccc(Br)cc1F (stereo not given) | 101 to 103 °C
Nc1cccc(CS(=O)(=O)C2CCCCC2)c1 | 106 to 108 °C
Nc1ccn(-c2cccc(C(F)(F)F)c2)n1 | 80 to 82 °C
Cc1cc(C)c2c(c1)c(C)cc1nnc(S)n12 | 262 to 264 °C
C=CCn1c(C)nnc1S | 264 to 266 °C
O=C(O)c1cnc(Cl)nc1Cl | 96 to 98 °C
Cc1cc(Br)cc(C=O)c1O | 68 to 70 °C
[N-]=[N+]=NS(=O)(=O)c1cccc2c1N=S=N2 | 118 to 120 °C
Cc1cc(C=O)c(C)n1C(C)C | 45 to 47 °C
Fc1ccc(-c2csc3ncnc(S)c23)cc1 | 244 to 246 °C
CNS(=O)(=O)CC1CCCN1 (stereo not given) | 91 to 93 °C
CC(C)CCc1ccc(S(=O)(=O)Cl)cc1 | 35 to 39 °C

Continued, values first:

melting point | SMILES
238 to 240 °C | NS(=O)(=O)c1cccc(C(=O)O)c1
106 to 108 °C | N#Cc1cccc(OCC(=O)NC2CC2)c1
92 to 94 °C | CCC(=CC(=O)O)c1ccccc1
129 to 131 °C | Cn1c(CC#N)nc2ccccc21
146 to 148 °C | CC(Nc1ccc(Cl)cc1Cl)C(=O)O (stereo not given)
191 to 193 °C | Cc1nc(-c2cccc(Cl)c2)sc1C(=O)O
128 to 130 °C | COc1ccccc1CNC(=O)n1ccnc1
128 to 130 °C | Clc1nnc(-c2cccs2)c2ccccc12
97 to 99 °C | Nc1oncc1-c1ccccc1
211 to 213 °C | O=C(O)c1cc(C2CC2)nc2ccc(Cl)cc12
192 to 194 °C | N#CCn1c(C(=O)O)cc2ccccc21
110 to 112 °C | O=Cc1cn(-c2ccccc2)nc1-c1cccnc1
116 to 118 °C | Cc1ccc(S(=O)(=O)Nc2cccc(C(F)(F)F)c2)cc1N
57 to 59 °C | O=S(=O)(Cl)c1cccc(-c2cccs2)c1
106 to 108 °C | CCc1cccc(Oc2ccc(F)cc2C=CC(=O)O)c1
165 to 167 °C | CCc1cccc2c(C(=O)CCl)c[nH]c12
175 to 177 °C | O=C(O)CCC(=O)c1ccc(I)cc1
269 to 271 °C | COc1ccc2c(O)c(C(=O)O)cnc2c1
155 to 157 °C | Nc1cc(C(=O)O)ccc1OC(F)F

melting point | SMILES
69 to 71 °C | O=C(O)C1(OCc2ccccc2)CCOCC1
100 to 102 °C | CSCc1c(C(=O)O)oc2ccccc12
129 to 131 °C | O=C(O)c1cccn(Cc2ccccc2)c1=O
56 to 58 °C | Cc1nn(-c2ccccc2Cl)c2sc(C(=O)O)cc12
156 to 158 °C | O=Cc1ccc(OCC(=O)O)c([N+](=O)[O-])c1
82 to 84 °C | CCOc1ccc(S(=O)(=O)N(C)c2ccc(OCC(=O)O)cc2)cc1
211 to 213 °C | N#Cc1cc(Cl)ccc1Oc1cccc(C(=O)O)c1
139 to 141 °C | COC(=O)c1ccccc1CC(=O)O
108 to 110 °C | Nc1ccnc(Oc2ccccc2Br)c1
166 to 168 °C | N#Cc1cccc(C(=O)NN)c1
153 to 155 °C | O=C(O)CNC(=O)c1cccc(F)c1
73 to 75 °C | CC(=O)C(Cc1ccccc1)NC(=O)CCl (stereo not given)
107 to 109 °C | NNC(=O)CN1CCCc2ccccc21
105 to 107 °C | CC(C)CN1C(=O)c2ccccc2N2C(=O)CCC12C(=O)O (stereo not given)
107 to 109 °C | CCN(CC)c1ccc(N)cc1S(=O)(=O)Nc1ccc(OC)cc1
115 to 117 °C | Cc1ccc(SCC(=O)Nc2ccccc2C)c(N)c1
128 to 130 °C | CC(CS(=O)(=O)c1ccc(F)cc1)C(=O)O (stereo not given)
158 to 160 °C | N#Cc1ccc(S(=O)(=O)N2CCOCC2)cc1
120 to 122 °C | c1ccc2c(c1)CNc1ccccc1-2

melting point | SMILES
49 to 51 °C | O=C(CN1CCNCC1)NCc1ccccc1
101 to 103 °C | CN(C)CCCNS(=O)(=O)c1cccc(C#N)c1
285 to 287 °C | Cc1ccc(NS(=O)(=O)c2ccc(C(=O)O)cc2)cc1
166 to 168 °C | N#CCc1cccc(C(=O)O)c1
219 to 221 °C | Cc1c(C(=O)O)nnn1-c1ccc2ncccc2c1
129 to 131 °C | COC(=O)c1cccc(-c2nc(CCl)cs2)c1
74 to 76 °C | Nc1ccccc1C(=O)N1CCOCC1
106 to 108 °C | CC(=O)COc1ccc2cc(Br)ccc2c1
118 to 120 °C | N#Cc1cccc(NC(=O)CSc2ccccc2C(=O)O)c1
169 to 171 °C | COc1ccccc1NS(=O)(=O)c1cc(N)ccc1N1CCCCC1
155 to 157 °C | O=C(O)CSc1nc2cc(Cl)ccc2n1Cc1ccccc1
126 to 128 °C | CS(=O)(=O)Nc1cccc(CN)c1
53 to 55 °C | O=C(O)CCCCOc1ccc(Oc2ccccc2)cc1
103 to 105 °C | CSCCC(NS(=O)(=O)c1ccccc1)C(=O)O (stereo not given)
249 to 251 °C | Cc1cccc(C(=O)O)c1NC(=O)c1ccncc1
90 to 92 °C | CC(Cl)C(=O)NCc1ccc(F)cc1 (stereo not given)
189 to 193 °C | CCOC(=O)c1nc2ccccc2c(=O)[nH]1
186 to 188 °C | NC(=S)CCN1C(=O)c2ccccc2C1=O

Reference: a melting point compilation (Tetko et al.)
